In EP2698385A1, “Detection of synthetic cannabinoids” (priority 2012, dated 2014):
Counter-ions that a name gives are not always drawn. Like-named read-outs stand apart in the source and are kept apart here.

Legend:
Type in all cases: binding, sheep
[1] = test system: Antibody to Immunogen I; conditions: Cross-reactants at 100 ng/ml; Antibody to Immunogen I
Experimental: (§1) An aqueous solution of each immunogen was formulated with Freund's Complete Adjuvant (FCA) to form an emulsion consisting of 2mg/ml* immunogen in 50% (v/v) FCA. Three sheep were immunised with this emulsion (1° immunisation), 0.25ml being intramuscularly injected at each of four sites in the flank of each animal. Subsequent immunizations (boosts) contained 1mg/ml* immunogen. All boosts were emulsified in 50% (v/v) Freund's Incomplete Adjuvant (FIA) and were administered in the same manner as the 1° immunisation, at monthly intervals. Blood sampling took place 7 to 14 days after each boost. *The general procedure for immunogen administration is outlined above, however, it was necessary to deviate from this protocol in some cases, due to reduced immunogen concentrations (Immunogens II, IV, VII and VIII) and/or amount available (Immunogen VIII). Any deviations from the protocol described are outlined in Table 1A below and highlighted in bold. Table 1A: Amount and volume of immunogens administered for primary and subsequent boosts
(§2) The wells of an enhanced binding 96 well polystyrene microtiter plate were coated with IgG fraction of antiserum raised to Immunogen I or II, diluted in 10mM Tris, pH8.5 (125µl/well). The appropriate antibody coating dilution was determined using standard ELISA checkerboard techniques. The plate was incubated overnight at 4°C, washed 4 times over 10 minutes with Tris buffered saline containing Tween 20 (TBST) and tapped dry. Standard solutions (JWH-018 for Immunogens I and II) were applied at 0, 0.625, 1.25, 2.5, 5, 10, 20 and 40ng/ml and 50µl of each was added to the appropriate wells. 75µl of conjugate (appropriate hapten-HRP) diluted in Tris buffer (pH 7.2) containing EDTA, D-mannitol, sucrose, thimerosal and BSA, was added to each of the wells. The appropriate dilution of conjugate was also determined using standard ELISA checkerboard techniques. The plate was incubated at 25°C for 1 hour. Excess unbound conjugate was removed by washing 6 times over a 10 minute period with TBST. 125µl of tetramethylbenzidine (TMB) substrate solution was added to each well of the plate that was then incubated for 20 minutes in the dark at room temperature. The reaction was terminated by addition of 125µl 0.2M H2SO4 to each well. The absorbance was then measured at 450nm using a microtiter plate reader. The data are inputted to a computer program called 'KC Junior'. It is a 4 parameter fit curve and allow the calculatation of concentrations between the standard runs. This program is used to calculate the IC50s by dividing the 0ng/ml OD value by 2 and obtaining the concentration value from the curve for this OD.
In a similar manner to that described above, the wells of a 96-well microtiter plate were coated with the IgG fraction of the antiserum raised to Immunogens I or II. Standard solutions (JWH-018 for Immunogen I and II) were applied at 0, 0.625, 1.25, 2.5, 5, 10, 20 and 40ng/ml and conjugate was employed as detection reagent.
(§3) The data set our in Tables 3 and 4 are generated using antibodies raised against the indicated Immunogens in a competitive binding assay with the indicated tracers, using the indicated standards: Table 2
(§4) A450 = absorbance at 450nm B = absorbance at 450nm at xng/ml standard concentration B0 = absorbance at 450nm at 0ng/ml standard concentration IC50 = standard concentration which produces 50% B/B0
(§5) In order to determine the specificity of the competitive ELISAs, standard solutions of a range of structurally similar synthetic cannabinoids and their metabolites were prepared in TBST. Using the calibration curves generated and employing a single level of cross reactants, these were used to determine the cross-reactivity of each immunoassay with these substances. […]

[2] = test system: Antibody to Immunogen IV
Experimental: as §1, §2
(§6) In a similar manner to that described above, the wells of a 96-well microtiter plate were coated with the IgG fraction of the antiserum raised to Immunogens IV, VII or VIII. Standard solutions (JWH-018 for Immunogens IV and VIII, JWH-015 for Immunogen VII) were prepared in TBST at 0, 1.25, 2.5, 5, 10, 20, 40 and 80ng/ml and conjugate was employed as detection reagent.
as §3, §4, §5

[3] = test system: Antibody to Immunogen VIII
Experimental: as §1, §2, §6, §3, §4, §5

[4] = test system: Antibody to Immunogen VII
Experimental: as §1, §2, §6, §3, §4, §5

[5] = Cross-reactants at 100 ng/ml, Antibody to Immunogen IV
[6] = Cross-reactants at 100 ng/ml, Antibody to Immunogen VIII
[7] = Cross-reactants at 100 ng/ml, Antibody to Immunogen VII

| Molecule | %B/B0 [1] [%] | %B/B0 [2, 5] [%] | %B/B0 [3, 6] [%] | %B/B0 [4, 7] [%] | %B/B0 [2] [%] | %B/B0 [3] [%] | %B/B0 [4] [%] |
| --- | --- | --- | --- | --- | --- | --- | --- |
| COc1ccc(C(=O)c2cn(CCCCCO)c3ccccc23)cc1 [RCS-4 N-(5-hydroxypentyl) metabolite] | 59.51 | 61.03 | 19.13 | 94.55 | – | – | – |
| CCCCn1cc(C(=O)c2ccc(OC)cc2)c2ccccc21 [RCS-4-C4 homologue] | 76.27 | 27.17 | 9.54 | 100.20 | – | – | – |
| (+-)-CP 55,940 [((+-)-CP 55,940)] | 100.61 | 94.60 | 100.25 | 100.25 | – | – | – |
| CCCCCn1cc(C(=O)c2ccc(CC)c3ccccc23)c2cc(O)ccc21 [JWH-210 5-hydroxyindole metabolite] | 83.29 | 48.91 | 87.72 | 100.43 | – | – | – |
| CCCCCCC(C)(C)C1=CC(=O)C([C@@H]2CCC[C@H](O)C2)=CC1=O [CP-47,497-para-quinone analogue] | 100.26 | 97.33 | 88.11 | 93.29 | – | – | – |
| COc1ccc(CC(=O)c2cn(CCC3CCCCC3)c3ccccc23)cc1 [RCS-8 4-methoxy isomer] | 94.94 | 90.78 | 100.72 | 98.21 | – | – | – |
| CCCCCn1cc(C(=O)Cc2ccccc2OC)c2cc(O)ccc21 [JWH 250 5-hydroxyindole metabolite] | 100.75 | 84.05 | 67.19 | 99.88 | – | – | – |
| (-)-CP 55,940 | 98.27 | 93.02 | 97.58 | 101.15 | – | – | – |
| CCCCCCn1cc(C(=O)c2cccc3ccccc23)cc1-c1ccccc1 [JWH-147] | 83.85 | 97.00 | 92.32 | 99.32 | – | – | – |
| CCCCCn1cc(C(=O)c2ccc(OC)cc2)c2ccccc21 [RCS-4] | 80.46 | 19.21 | 5.93 | 93.51 | – | – | – |
| CCCCCn1cc(C(=O)Cc2ccccc2C)c2ccccc21 [JWH-251] | 68.01 | 42.02 | 9.12 | 96.74 | – | – | – |
| CCCCCCC(C)(C)c1cc(O)c2c(c1)OC(C)(C)[C@@H]1CC=C(CO)C[C@@H]21 [HU-210] | 102.57 | 92.53 | 93.42 | 100.39 | – | – | – |
| (+)-CP 55,940 | 103.25 | 91.38 | 95.12 | 97.15 | – | – | – |
| COc1ccccc1CC(=O)c1cn(CCCCCO)c2ccccc12 [JWH 250 N-(5-hydroxypentyl) metabolite] | 75.47 | 76.22 | 42.79 | 96.13 | – | – | – |
| CCCCCn1cc(C(=O)Cc2ccc(OC)cc2)c2ccccc21 [JWH-201] | 77.14 | 59.03 | 8.26 | 100.25 | – | – | – |
| CCCCCn1cc(C(=O)c2cccc(OC)c2)c2ccccc21 [RCS-4 3-methoxy isomer] | 31.19 | 25.65 | 10.95 | 94.72 | – | – | – |
| CCCC(C)(C)c1ccc2c(c1)OC(C)(C)[C@@H]1CC=C(C)C[C@@H]21 [JWH-133] | 100.56 | 98.18 | 100.00 | 101.84 | – | – | – |
| COc1ccc(C(=O)c2c(C)n(CCN3CCOCC3)c3ccccc23)cc1 [WIN-48,098 (other name Pravadoline), Pravadoline] | 90.05 | 91.64 | 97.90 | 92.41 | – | – | – |
| CS(=O)(=O)O.Cc1c(C(=O)c2cccc3ccccc23)c2cccc3c2n1[C@@H](CN1CCOCC1)CO3 [Win 55,212-3 mesylate, Win 55,212-3] | 34.00 | 94.57 | 101.30 | 32.31 | – | – | – |
| COc1cccc(CC(=O)c2cn(CCC3CCCCC3)c3ccccc23)c1 [RCS-8 3-methoxy isomer] | 93.24 | 89.43 | 83.62 | 93.73 | – | – | – |
| CCCCCn1cc(C(=O)c2ccc(CCC)c3ccccc23)c2ccccc21 [JWH-182] | 107.08 | 12.83 | 30.65 | 98.40 | – | – | – |
| CCCCCn1cc(C(=O)c2ccc(OC)c3ccccc23)c2ccccc21 [JWH-081] | 62.13 | 3.78 | 15.88 | 86.72 | – | – | – |
| CCCCCC(C)n1c(C)c(C(=O)c2cccc3ccccc23)c2ccccc21 (stereo not shown) [JWH-011] | 62.13 | 99.19 | 97.49 | 57.43 | – | – | – |
| CCCCCn1cc(C(=O)c2cccc3ccc(CC)cc23)c2ccccc21 [JWH-210 7-ethylnaphthyl isomer or JWH-234, JWH-210 7-ethylnaphthyl isomer] | 73.11 | 27.07 | 50.90 | 100.55 | – | – | – |
| CCCCCn1cc(C(=O)Cc2ccccc2Cl)c2ccccc21 [JWH-203] | 72.55 | 52.15 | 9.19 | 99.08 | – | – | – |
| NCCc1c[nH]c2ccc(O)cc12 [Serotonin HCl] | – | 95.40 | 100.36 | 99.83 | – | – | – |
| (-)-11-nor-9-Carboxy-delta9-THC | – | – | – | – | 93.08 | 103.36 | 98.72 |
